What was measured:
[1] = target: T1, methionine adenosyltransferase 2A (MAT2A) (Homo sapiens, UniProt P31153); assay: HPLC SAM synthesis assay with purified MAT2A; assay type: biochemical
[2] = target: T1, methionine adenosyltransferase 2A (MAT2A); assay: microscale thermophoresis; assay type: binding

T1 sequence (P31153 whole entry): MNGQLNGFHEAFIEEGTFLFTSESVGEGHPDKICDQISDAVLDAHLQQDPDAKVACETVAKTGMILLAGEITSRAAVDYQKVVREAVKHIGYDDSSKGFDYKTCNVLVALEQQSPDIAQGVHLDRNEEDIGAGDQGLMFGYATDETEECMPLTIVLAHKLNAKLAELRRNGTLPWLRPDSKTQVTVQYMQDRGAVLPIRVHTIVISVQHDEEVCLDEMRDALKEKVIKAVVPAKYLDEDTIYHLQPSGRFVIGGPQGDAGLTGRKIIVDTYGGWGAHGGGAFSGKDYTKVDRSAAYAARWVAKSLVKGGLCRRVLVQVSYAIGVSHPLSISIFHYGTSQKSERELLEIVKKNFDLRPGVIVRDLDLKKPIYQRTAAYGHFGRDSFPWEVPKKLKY

Nc1ncnc2c1ncn2[C@@H]1O[C@H](COP(=O)(O)OP(=O)(O)OP(=O)(O)O)[C@@H](O)[C@H]1O [ATP]
HPLC SAM synthesis assay with purified MAT2A [1]: MAT2A was incubated with its substrates which were methionine and ATP, and SAM was formed

CC(=O)O[C@@H]1CC[C@@]2(C)[C@@H](CC[C@]3(C)[C@@H]2C(=O)C=C2[C@@H]4[C@@H](C)[C@H](C)CC[C@]4(C)CC[C@]23C)[C@@]1(C)C(=O)O [compound 1, AKBA]
Kd [2]: 129 ± 28 nM

CSCC[C@H](N)C(=O)O [methionine]
HPLC SAM synthesis assay with purified MAT2A [1]: MAT2A was incubated with its substrates which were methionine and ATP, and SAM was formed

— paper PMC6355826 (EBioMedicine, 2018)
